Here are results for two compounds from patent US20180055835A1, “Method for Treating And Preventing Protozoal Infections” (priority 2016, published 2018).

One may read the IC50 as the concentration needed to halve the response being measured.

Data set [1] deals with Leishmania donovani topoisomerase I (LdTOPILS). The conditions noted are these: inhibitor of LdTOPILS; Roy A., et al., Biochemical Journal 2007; cited from earlier work.
Data set [2] deals with Py13XL malaria (P. falciparum). The experiment in a line: Prevention of malaria by naltrexone in mice (dosing 7 days before infection). Format: in vivo, BABL/C mice. The following applies: for more mice died: on 6 d. As to the method: (§1) • 45 BABL/C mice, six weeks old, were divided into 5 groups, 9 mice for each group. […] The survival was recorded from the first day of infection and infected rate of malaria are recorded from the third day of infection by taking tail vein blood, smearing glass slide, Gimsa staining and checking parasitemia under microscope.

For data set [3], the system named is Py13XL malaria. Described as above. Format: in vivo, BABL/C mice. The following applies: oral, 7 days before infection, on 5 d, 9 mice per group. On the procedure: as §1
Data set [4] has as its system Py13XL malaria. The experiment in a line: Anti-malaria effect (treatment) with naltrexone in infected mice. Format: in vivo, BABL/C mice. The following applies: for mice died: on 5 d. On the procedure:
(§2) • 45 BABL/C mice, six weeks old, were divided into 5 groups, 9 mice for each group. […] The survival was recorded from the third day of infection and infected rate of malaria are recorded by taking tail vein blood, smearing glass slide, Gimsa staining and checking parasitemia under microscope. • Finally changes of immune parameters in peripheral blood were measured by flow cytometry technology and made comparison to control.

Data set [5] relates to immune cells in peripheral blood. The experiment in a line: Changes of immune parameters in peripheral blood post treatment, flow cytometry. The class given is in vivo, BABL/C mice. The conditions noted are these: treatment group after low dose naltrexone. As to the method:
as §2

Another data set concerns malaria. The experiment in a line: Case reports: relapse of malaria in patients given LDN. Format: in vivo, human. As to the method:
• A patient with HIV suffering from malaria has had relapses at least twice a year for the last five years.
• A person has suffered on and off from malaria for 40 years. The patient was administered 4.5 mg of LDN per day, as an adjunct treatment with chemotherapy.

Setting [6] is: 0.5 mg naltrexone per mouse, oral, 7 days before infection, 9 mice per group.
[7] abbreviates: 1 mg naltrexone per mouse, oral, 7 days before infection, 9 mice per group.
Where [8] appears, read: 0.5 mg naltrexone treating group, oral daily 15 days from 2 d post infection, 9 mice per group.
[9] abbreviates: 1 mg naltrexone treating group, oral daily 15 days from 2 d post infection, 9 mice per group.

For the compound `c1ccc2c(Cc3c[nH]c4ccccc34)c[nH]c2c1` [DIM], in data set [1], the IC50 is 1200 nM.
Turning to `O=C1CC[C@@]2(O)[C@H]3Cc4ccc(O)c5c4[C@@]2(CCN3CC2CC2)[C@H]1O5` [naltrexone], the “mice still alive at the end point” value in data set [2] (setting [6]) was 1 mice. Also, the more mice died stood at 7 mice in data set [2] (setting [6]); 5 mice in data set [2] (setting [7]); 5 mice in data set [2] (2 mg naltrexone per mouse, oral, 7 days before infection, 9 mice per group); 4 mice in the data set on Py13XL malaria [4] (0.5 mg naltrexone treating group, oral daily 15 days from 2 d post infection, on 6 d, 9 mice per group); 2 mice in the data set on Py13XL malaria [4] (1 mg naltrexone treating group, oral daily 15 days from 2 d post infection, on 6 d, 9 mice per group); 1 mice in the data set on Py13XL malaria [4] (1 mg naltrexone treating group, oral daily 15 days from 2 d post infection, on 9 d, 9 mice per group). The compound further gave a more mice died with Py13XL malaria [4] (2 mg naltrexone group, oral daily from 2 d post infection, on 6 d, 9 mice per group) of 4 mice. Further, in data set [2] (1 mg naltrexone per mouse versus 0.5 mg and 2 mg), the “protecting effect compared between dose groups” value was “best protecting effect”. In data set [2] (1 mg naltrexone per mouse, oral, 7 days before infection), this compound showed a survival rate of 33.3%. Besides, in data set [2] (setting [7]), the “mice still alive till the end point” value was 3 mice. Besides, the parasitemia entry in data set [2] (1 mg naltrexone per mouse, surviving mice, on 20 d) was “all infection parasitemia disappeared”; with Py13XL malaria [4] (1 mg naltrexone treating group, surviving mice, on 20 d), “parasitemia disappeared”. Also, the mice died in the data set with Py13XL malaria [3] (0.5 mg naltrexone per mouse) is 1 mice; with Py13XL malaria [3] (1 mg naltrexone per mouse), 1 mice; in the data set on Py13XL malaria [3] (2 mg naltrexone per mouse), 4 mice; in the data set with Py13XL malaria [4] (setting [8]), 2 mice; in the data set on Py13XL malaria [4] (setting [9]), 0 mice; in the data set on Py13XL malaria [4] (2 mg naltrexone group, oral daily from 2 d post infection, 9 mice per group), 5 mice. The “mice still alive for end point” value in the data set on Py13XL malaria [4] (setting [8]) amounted to 3 mice. For the same compound, in the data set on Py13XL malaria [4] (1 mg naltrexone group versus 0.5 mg and 2 mg), the “treatment effect compared between dose groups” value is recorded as “best treatment”. In addition, the “mice still alive till end point” value with Py13XL malaria [4] (setting [9]) is recorded as 6 mice. Moreover, the toxicity to animals result in the data set on Py13XL malaria [4] (2 mg naltrexone, infected mice) is recorded as “shows toxicity”. In addition, the Total nucleated cell in data set [5] (control 1.30 ± 0.13, P < 0.01) is listed as 4.21 ± 0.75. For the same compound, in data set [5] (control 4.22 ± 0.64, P < 0.01), the Treg cell is listed as 2.15 ± 0.48. The compound also gave an NK cell in data set [5] (control 7.58 ± 1.59, P < 0.01) of 20.39 ± 4.42. In data set [5] (control 9.18 ± 0.26, P < 0.01), this compound displayed a Macrophage of 12.1 ± 0.56. For the same compound, in data set [5] (control 22.65 ± 3.48, P < 0.01), the “CD4+ T cell” value amounted to 34.81 ± 5.78. Moreover, the “CD8+ T cell” value in data set [5] (control 35.33 ± 3.62, P < 0.01) is 59.63 ± 3.78. Further, the “CD3+ T cell” value in data set [5] (control 48.90 ± 4.06, P < 0.01) turned out to be 67.04 ± 4.20. Besides, the “time without relapse of malaria” value in the data set on malaria (patient with HIV, relapses at least twice a year before, 4.5 mg per day as adjunct treatment for HIV) is on record as 24 months; in the data set with malaria (person, malaria on and off for 40 years, 4.5 mg per day, adjunct with chemotherapy) it was “over 24 months”.
